Entries after “also recorded” stand apart in the source; their conditions may differ.
What was measured:
[1] = test system: prostate cancer cell line, Gs-α; experiment: Matrigel cell invasion assay; type: cell-based; conditions: Matrigel invasion chambers, 36 h
Procedure: A cell invasion assay was performed on an aggressive prostate cancer cell line, Gs-α, to determine the effects of selected compounds that inhibit cell proliferation.
The experiment was performed in six-well Matrigel two-tier invasion chambers (Collaborative Biomedical Products, Bedford, Mass., USA), using a protocol similar to that used successfully by others (see, e.g., Chien J, Wong E, Nikes E et al., Oncogene 1999; 18: 3376-3382, incorporated herein by reference). […]
While the membranes were still wet in culture dishes, the GFP-positive cells on the entire membrane were counted under fluorescent illumination. […] The total number of cells on the entire gel was counted. The data from invasion assay were corrected for cell growth during experimental periods as follows: the experimental cells were plated at a density of 10^5 cells per well in six-well control inserts in chemoattractant medium and increase in cell number were determined after 48 h. […] The results were expressed as mean±standard deviation. […]
Significance of differences in Percent Invasion according to treatment (or transfection of Metafectene vehicle alone) were assessed by Student's t-test.

[2] = test system: BT549 breast cancer cells; experiment: 3H-thymidine incorporation assay, BT549; type: cell-based, human
Procedure: FIG. 4. Compounds #1, #7, and #11 inhibit proliferation of BT549 breast cancer cells. BT549 cells were treated for 24 hours with the indicated “Pocket #1” compounds. The effect of treatment on cell proliferation was quantitated by measuring the amount of ^3H-Thymidine incorporated into cellular DNA over a two hour time interval. The results are presented as the average of triplicate determinations ±standard deviation.
FIG. 5. Compounds predicted to bind to “Pocket #2” inhibit proliferation of BT549 breast cancer cells. BT549 cells were treated for 24 hours with the indicated “Pocket #2” compounds. The effect of treatment on cell proliferation was quantitated by measuring the amount of ^3H-Thymidine incorporated into cellular DNA over a two hour time interval. The results are presented as the average of triplicate determinations ±standard deviation.
Additional ^3H-thymidine incorporation assays were performed to determine whether the “Pocket #2” binding drugs (see Table 2) inhibit cell proliferation at concentrations lower than 100 μM.

PC3 prostate tumor cells = experiment: Mouse xenograft tumor model, PC3; type: in vivo, SCID mice; conditions: intratumoral, 1:50 dilution (2 mM), compared with 1:50 DMSO in PBS in two controls
Procedure: A compound of the invention (Compound 1) was tested in a mouse xenograft tumor model to determine whether the compound can inhibit tumor growth in vivo.
SCID mice were subcutaneously implanted with PC3 prostate tumor cells in the flank and were administered intratumorally with controls (DMSO) or a test compound.
The two control animals were sacrificed when the total tumor volume (L×W×H) exceeded 1.5 cc. The treated animal was sacrificed because a small but significant skin ulceration was developing over the tumor.

[3] = test system: multiple human cancer cell lines; conditions: NCI screen, read-out: average 50% inhibitory concentration (IC50), proliferation; cited from earlier work
PC-3 tumor cells = experiment: PC-3 tumor in mice, intratumoral injection with CD44 RNA interference; type: in vivo; conditions: combined with CD44 RNA interference, after 11 days of injection, three treated animals
Procedure: The effect of 4-tert-Butyl-2-nitroaniline when combined with CD44 RNA interference was therefore investigated.
Seven-wk-old mice (Jackson Laboratory, Bar Harbor, Me.) were injected in the right flank with 2×10^6 PC-3 tumor cells in 500 μl liquid Matrigel. […] By 14 days after injection, a tumor mass was palpable and at 27 days, 4-tert-Butyl-2-nitroaniline and CD44 RNAi therapy commenced. Gene transfection was controlled for quantitation by injecting a constant 10 μg of vector. This approach involved mixing volume of DNA containing 10 μg of pU6BS (and subsequently pTracer) plasmid having the CD44 RNAi construct with 10 μl of Metafectene before injection into the tumor. Both Metafectene and DNA were diluted separately in 100 μl of sterile serum-free RPMI before mixing (see, e.g., Iczkowski K A, Omara-Opyene A L, and Klösel R., Molecular Biotechnology 2004; 28:97-103). The mixture was then allowed to stand for 30 minutes before injection to allow the formation of Metafectene:DNA complexes.
Intra-tumoral injection was performed five times weekly, angling the needle at different areas of the tumor during a given injection as well as varying the injection site for each injection occasion. Control animals were injected with 100 μl consisting of 50 μl empty vector/medium plus 50 μl of Metafectene.

Cdk4 [4] = target: T1, Cdk4 (Homo sapiens, UniProt P11802); experiment: Immunofluorescence microscopy of Cdk4 distribution; type: cell-based
T1 construct: endogenous in cells; host or cells: BT549
Excerpt: (§1) It appears that compounds of the invention can cause redistribution of Cdk1, Cdk2, and Cdk4 in cells.

Cdk1 [5] = target: T2, Cdk1 (Homo sapiens, UniProt P06493); experiment: Immunoblot of cellular Cdk1 level in BT549 cells; type: cell-based; conditions: 24 or 48 hours, time- and dose-dependent
T2 construct: endogenous in cells; host or cells: BT549
Procedure: (§2) BT549 cells were treated with the indicated Pocket #1 compounds for the indicated intervals. Cell lysates were prepared and the amounts of Cdk1, Cdk2, and Cdk4 were determined by immunoblot. Actin staining serves as a loading control. DMSO serves as a vehicle control.
(§3) Human breast cancer BT549 cells were treated as indicated for 24 or 48 hours with either 0.2% DMSO as a vehicle control, or compounds #3, #4, and #7 at the indicated concentrations. Cell lysates were prepared, normalized for protein content, resolved by SDS-PAGE and the proteins transferred to nitrocellulose. Levels of Cdk1, Cdk2, and Cdk4 were measured using primary antibodies specific for these proteins, followed by alkaline-phosphatase-conjugated secondary antibodies and colorimetric detection using the substrate NBT/BCIP.

Cdk2 [6] = target: T3, Cdk2 (Homo sapiens, UniProt P24941); experiment: Immunoblot of cellular Cdk2 level in BT549 cells; type: cell-based; design: endogenous in cells; host or cells: BT549; conditions: 24 or 48 hours, time- and dose-dependent
Procedure: as §2, §3

NMuMG cells = experiment: 3H-thymidine incorporation assay, NMuMG; type: cell-based, mouse; conditions: 100 μM, 24 hours
Excerpt: (§4) FIG. 2. In silico molecular docking and preliminary analysis of potential Cyclin/Cdk2 inhibitors. (A) Cyclin A/Cdk2/p27 complex with spheres docked into the binding pocket (Pocket #1) and the pocket enclosed in a scoring grid (rectangular box). (B) Binding cleft shown filled with spheres, the top 10 hits superimposed into the binding pocket (All Hits), and the predicted mode of binding of individual hits in the Cyclin A/Cdk2/p27 pocket (Hits #3-10). (C) NMuMG (black bars) or DU145 cells (open bars) were treated for 24 hours with 100 μM of the indicated compounds and ^3H-thymidine incorporation was measured to assess rates of cell proliferation. Roscovitine is a known Cdk inhibitor and was included as a positive control. DMSO (0.1%) was included as a vehicle control. (D) Morphological change induced by 100 μM Hit #10 in NMuMG and DU145 cells after treatment for 24 hours.
(§5) Labeled thymidine (^3H-thymidine) incorporation assays were used to screen compounds at a concentration of 100 μM using mouse mammary epithelial cells and the human prostate cancer cell line DU145.
Seven of the molecules identified in Example 1 as having the top estimated binding energies (Hits/Compounds 3, 4, 6, 7, 8, 9, and 10) were obtained and tested for their ability to induce cell cycle arrest of mouse mammary NMuMG and DU145 human prostatic carcinoma cell lines in ^3H-thymidine incorporation assays (FIG. 2C). […] Thus at least five of the ten top-ranked compounds are cell permeable and induce an appreciable arrest of cancer cell proliferation.

Cdk4 [7] = target: T1, Cdk4; experiment: Immunoblot of cellular Cdk4 level in BT549 cells; type: cell-based; conditions: 24 or 48 hours, time- and dose-dependent
Procedure: as §2, §3

Cdk1 [8] = target: T2, Cdk1; experiment: Immunofluorescence microscopy of Cdk1 distribution; type: cell-based
Excerpt: as §1

DU145 cells = experiment: 3H-thymidine incorporation assay, DU145; type: cell-based, human; conditions: 100 μM, 24 hours
Excerpt: as §4, §5
Human prostate cancer DU145 cells were plated at 30,000 cells per well in 24-well plates and allowed to attach for 24 hours. The cells were treated for 24 hours with either 100 μM of the indicated compounds, 0.1% DMSO as a vehicle control, or left untreated. The cells were pulsed with ^3H-thymidine for two hours. The cells were fixed in 10% trichloroacetic acid and washed a total of three times with 10% trichloroacetic acid. The ^3H-thymidine-labeled DNA was dissolved in 0.2% NaOH, mixed with scintillation fluid, and the associated radioactivity quantitated using a scintillation counter. These experiments were performed in triplicate and the results are presented as the average thymidine incorporation±standard deviation. […]

Cdk2 [9] = target: T3, Cdk2; experiment: Immunofluorescence microscopy of Cdk2 distribution; type: cell-based; design: endogenous in cells; conditions: MDA-MB-468 breast cancer cells, 24 hours
Procedure: FIG. 6. Immunofluorescence microscopy of cellular distribution of Cdks in the absence (upper panels) and presence (lower panels) of a compound of the invention. MDA-MB-468 breast cancer cells were treated with the indicated concentration of pocket 1 compound #7 for 24 hours. Immunofluorescence microscopy was performed using an antibody to Cdk2. […] These aggregates are most apparent at sites of cell-cell contact.
as §1

T1 sequence (P11802 whole entry): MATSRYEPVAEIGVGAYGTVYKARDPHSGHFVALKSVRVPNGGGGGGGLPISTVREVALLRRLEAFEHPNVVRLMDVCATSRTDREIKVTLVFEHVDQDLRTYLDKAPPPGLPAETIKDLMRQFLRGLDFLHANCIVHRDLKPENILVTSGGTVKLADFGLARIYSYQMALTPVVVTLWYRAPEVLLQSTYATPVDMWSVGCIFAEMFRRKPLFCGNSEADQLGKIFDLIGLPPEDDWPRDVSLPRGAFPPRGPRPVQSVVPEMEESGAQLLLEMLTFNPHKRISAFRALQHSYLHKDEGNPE
T2 sequence (P06493 whole entry): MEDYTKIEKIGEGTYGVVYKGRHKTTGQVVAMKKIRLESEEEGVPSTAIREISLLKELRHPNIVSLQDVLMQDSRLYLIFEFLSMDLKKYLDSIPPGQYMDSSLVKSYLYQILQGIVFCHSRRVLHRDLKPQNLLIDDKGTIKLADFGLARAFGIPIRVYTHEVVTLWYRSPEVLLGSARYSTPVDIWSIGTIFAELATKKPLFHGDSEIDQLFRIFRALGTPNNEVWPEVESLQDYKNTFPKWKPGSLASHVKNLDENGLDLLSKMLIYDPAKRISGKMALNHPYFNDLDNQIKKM

## Cc1ccc(C(=O)/C=C/c2ccccc2)s1 [Compound 1]
[1]
  cell invasiveness in vitro: inhibit cell invasiveness
[2]
  potency compared with Compound 7: more potent than Compound 7
[2]; 24 hours
  effective concentration for inhibition of proliferation: low micromolar concentrations
  inhibition of proliferation (3H-thymidine incorporation): inhibit the proliferation
PC3 prostate tumor cells
  tumor growth: markedly reduced tumor growth

## COc1ccc2oc3cccc(NN(C)C)c3c(=O)c2c1 [Compound 2, 1-(N′,N′-Dimethyl-hydrazino)-7-methoxy-xanthen-9-one]
[3]
  IC50: 12 µM

## CC(C)(C)c1ccc(N)c([N+](=O)[O-])c1 [Compound 3, 4-tert-Butyl-2-nitroaniline]
PC-3 tumor cells
  decrease of tumor volume: more than 50%

## COc1ccc(C(C#N)=Cc2ccccn2)cc1 [Compound 7, 2-(4-methoxyphenyl)-3-pyridin-2-yl-prop-2-enenitrile]
Cdk4 [4]
  Cdk4 localization: aggregates appear on top of the nuclei
Cdk1 [5]
  cellular level of Cdk1: Decrease the Cellular Levels
[2]; 24 hours
  inhibition of proliferation (3H-thymidine incorporation): inhibit the proliferation
Cdk2 [6]
  cellular level of Cdk2: Decrease the Cellular Levels
NMuMG cells
  inhibition of cell proliferation (3H-thymidine incorporation): significantly inhibited proliferation
Cdk4 [7]
  cellular level of Cdk4: Decrease the Cellular Levels
Cdk1 [8]
  Cdk1 localization: aggregates appear primarily at cell-cell junctions
DU145 cells
  inhibition of cell proliferation (3H-thymidine incorporation): significantly inhibited proliferation
Cdk2 [9]
  Cdk2 localization: aggregates appear primarily at cell-cell junctions; also recorded: change in Cdk2 localization consistent with aggregation

## c1ccc(OSOc2ccccc2)cc1 [Compound 10]
NMuMG cells
  inhibition of cell proliferation (3H-thymidine incorporation): significantly inhibited proliferation
  morphological change: dramatic morphological change
DU145 cells
  inhibition of cell proliferation (3H-thymidine incorporation): significantly inhibited proliferation
  morphological change: dramatic morphological change

## O=C(N/N=C\c1cc(Br)ccc1O)N/N=C/c1cc(Br)ccc1O [VDW9]
[2]; 2 μM, 24 hours
  inhibition of proliferation (3H-thymidine incorporation): inhibited proliferation
[2]; 10 μM, 24 hours
  inhibition of proliferation (3H-thymidine incorporation): inhibited proliferation

Reference: patent publication US8569356B2, “Cyclin dependent kinase inhibitors” (University of Florida Research Foundation, Inc., priority 2005, dated 2013)
